Experimental data: PubChem BioAssay (NCI)
Values joined by “and” are separate entries in the source; they are usually repeats but may differ in a detail not shown here. Identical values can stand only once.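 The compound was tested at five concentrations on cells cultured in 96-well plates, with a 48-hour exposure period. The concentration for 50% growth inhibition is given as GI50. The concentration for full growth arrest is given as TGI.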

Tests used:
Assay in all cases: NCI anticancer screen, dose series, 48 h
HT29 colon = system: HT29 colon
A549 NSCLC = system: A549 NSCLC
HCC-2998 colon = system: HCC-2998 colon
786-0 renal = system: 786-0 renal
NCI-H522 lung = system: NCI-H522 lung
SK-MEL-2 melanoma = system: SK-MEL-2 melanoma
HOP-92 NSCLC = system: HOP-92 NSCLC
OVCAR-5 ovarian = system: OVCAR-5 ovarian
TK-10 renal = system: TK-10 renal
SF-268 CNS = system: SF-268 CNS

SMILES | GI50 (HT29 colon) [µM] | TGI (HT29 colon) | GI50 (A549 NSCLC) [µM] | TGI (A549 NSCLC) | GI50 (HCC-2998 colon) [µM] | TGI (HCC-2998 colon) | GI50 (786-0 renal) [µM] | TGI (786-0 renal) | GI50 (NCI-H522 lung) [µM] | TGI (NCI-H522 lung) | GI50 (SK-MEL-2 melanoma) [µM] | TGI (SK-MEL-2 melanoma) | GI50 (HOP-92 NSCLC) [µM] | TGI (HOP-92 NSCLC) | GI50 (OVCAR-5 ovarian) [µM] | TGI (OVCAR-5 ovarian) | GI50 (TK-10 renal) [µM] | TGI (TK-10 renal) | GI50 (SF-268 CNS) [µM] | TGI (SF-268 CNS)
COc1ccc(-c2conc2-c2ccccc2)cc1 | 0.112 | > 100 µM | 0.502 | > 100 µM | 0.534 | 14.7 µM | 1.28 | 53 µM | 0.17 | 15.9 µM | 0.585 | > 100 µM | 4.58 | > 76.4 µM | 0.832 | > 100 µM | 15.3 | > 100 µM | 1.67 | > 100 µM
COC(=O)C1=C(C(=O)OC)C(C(=O)OC)C(C(=O)OC)C(C(=O)OC)(C(=O)OC)C(C(=O)OC)=C1C(=O)OC (stereo not given) | – | 35.3 µM | – | 46.4 µM | – | 31 µM | – | 26.3 µM | – | 4.07 µM | – | 35.1 µM | – | 18.4 µM | – | 35.3 µM | – | 29 µM | – | 42.3 µM
COC12C=C/C(=C(/C(=O)OCc3csc(SC)n3)C(=O)CCCCCCCCC3(OC)C=C/C(=C(/C(=O)OCc4cnc(SC)s4)C(=O)CCCCCCCC1)O3)O2 (stereo not given) | 4.41 | > 100 µM | 4.65 | > 100 µM | 2.34 | 5.11 µM | 4.93 | 26.1 µM | 1.5 | 21.1 µM | 3.69 | 16.6 µM | 12.3 | 32.3 µM | 7.63 | > 100 µM | 15.8 | 74.8 µM | 5.75 | > 100 µM
CCOC(=O)C(=Cc1c(-c2ccccc2)[nH]c2ccccc12)C(=O)OCC | 4.56 | 17.1 µM | 6.34 | 24.5 µM | 10.1 | 22.6 µM | 11.7 | 37.2 µM | 3.32 | 11.8 µM | 4.6 | 17.3 µM | 5.47 | > 29.8 µM | 13.4 | 41.8 µM | 13.5 | 56.9 µM | 7.46 | 28.5 µM
COc1ccc2c(c1)c(-c1cc(-c3cn(C)c4ccc(OC)cc34)[nH]n1)cn2C | > 100 | > 100 µM | > 100 | > 100 µM | > 100 | > 100 µM | > 100 | > 100 µM | > 100 | > 100 µM | > 100 | > 100 µM | 60.7 | > 100 µM | > 100 | > 100 µM | > 100 | > 100 µM | > 100 | > 100 µM
Cc1cc(N(CCC#N)CCC#N)ccc1/C=C/C(=O)Nc1ccccc1Cl | – | > 100 µM | – | > 100 µM | – | > 100 µM | – | > 100 µM | – | > 100 µM | – | > 100 µM | – | > 100 µM | – | > 100 µM | – | > 100 µM | – | > 100 µM
Cc1cc2c(-c3nc4ccccn4c3NC34CC5CC(CC(C5)C3)C4)c(O)c(O)cc2c(O)c1-c1c(C)cc2c(-c3nc4ccccn4c3NC34CC5CC(CC(C5)C3)C4)c(O)c(O)cc2c1O | 0.788 | > 25 µM | 0.255 | > 25 µM | 1.13 | > 25 µM | 0.932 | 5.09 µM | 0.613 | 3.54 µM | 0.802 | 6.25 µM | 0.616 | 1.88 µM | 0.922 | > 25 µM | 0.794 | > 25 µM | 0.239 | 6.78 µM
O=c1ncccn1C1OC(CO)C(O)C1F (stereo not given) | – | > 100 µM | – | > 100 µM | – | > 100 µM | – | > 100 µM | – | > 100 µM | – | > 100 µM | – | > 100 µM | – | > 100 µM | – | > 100 µM | – | > 100 µM
NCCn1c2c(c3ccccc3c1=O)C(=O)c1ccccc1-2 | 0.401 | 5.22 µM | – | 0.676 µM | 0.329 | 1.64 µM | 0.552 | 1.78 µM | 1.24 | > 21.7 µM | 2.7 | 9.71 µM | 0.626 | 6.24 µM | 0.674 | 2.57 µM | 0.778 | 3.64 µM | 1.32 | 8.99 µM
CCCC(=O)Nc1cn(COC)c(C(=O)N2C[C@H]3C[C@@]34C2=CC(=O)c2[nH]cc(C)c24)n1 | 12.4 | 25.2 µM and > 100 µM | – | 50 µM and > 100 µM | 1.89 | 9.14 µM and 6.59 µM | 1.98 | – | 1.84 | 8.62 µM and 14.7 µM | 7.39 | 50 µM and > 100 µM | 5.12 | 26.8 µM and 31.4 µM | 6.13 | 50 µM and > 100 µM | – | 46.2 µM | 3.4 | 50 µM and > 100 µM
COc1cc(-c2nn3c(=O)n(-c4ccc(Cl)cc4)c(=O)nc3s2)cc(OC)c1OC | > 50 | > 100 µM | > 50 | > 100 µM | > 50 | > 100 µM | 17.4 | 50 µM and 41.4 µM | > 50 | > 100 µM | > 50 | > 100 µM | 44.4 | 50 µM and 59.7 µM | – | > 100 µM | 19.7 | 50 µM and 29.6 µM | 33.1 | > 100 µM
CN1C(=O)CC2(C)c3cc(C=O)ccc3N(C)C12 (stereo not given) | – | > 100 µM | – | > 100 µM | – | > 100 µM | – | > 100 µM | – | > 100 µM | – | > 100 µM | – | > 100 µM | – | > 100 µM | – | > 100 µM | – | > 100 µM
O=C1Cc2ccccc2CCc2ccccc21 | – | > 100 µM | – | > 100 µM | – | > 100 µM | – | > 100 µM | – | > 100 µM | – | > 100 µM | – | > 100 µM | – | > 100 µM | – | > 100 µM | – | > 100 µM
N#Cc1c(-c2ccc(Cl)cc2)csc1NC(=O)Nc1cccc(C(F)(F)F)c1 | 2.5 | 10.5 µM | 2.57 | 11.4 µM | 2.75 | 7.97 µM | 2 | 4.85 µM | 1.65 | 5.99 µM | 2 | 4.57 µM | 2.34 | 5.93 µM | 2.98 | 12.9 µM | 2.23 | 8.95 µM | 3.28 | 14.7 µM
CNc1ccc(N=Nc2cccc3ncccc23)cc1 | 37.5 | > 100 µM | 50.9 | > 100 µM | 33.5 | > 100 µM | > 88.4 | > 100 µM | 43.7 | > 100 µM | > 100 | > 100 µM | 24.3 | > 100 µM | 0.0278 | > 100 µM | > 100 | > 100 µM | 39.3 | > 100 µM
CCC1(Cl)C(=O)NC(=O)N(C2CC(O)C(CO)O2)C1N=[N+]=[N-] (stereo not given) | – | > 100 µM | – | > 100 µM | – | > 100 µM | – | > 100 µM | – | > 100 µM | – | > 100 µM | – | > 100 µM | – | > 100 µM | – | > 100 µM | – | > 100 µM
COc1ccc(-c2cn(-c3cc(OC)c(OC)c(OC)c3)c(=O)n2-c2ccccc2)cc1 | 60.6 | > 100 µM | > 100 | > 100 µM | > 100 | > 100 µM | 38.9 | > 100 µM | 66.7 | > 100 µM | > 100 | > 100 µM | 11.6 | 36.9 µM | > 100 | > 100 µM | > 100 | > 100 µM | > 100 | > 100 µM
CCOc1ccccc1NC(=O)CCC(=O)NN | – | > 100 µM | – | > 100 µM | – | > 100 µM | – | > 100 µM | – | > 100 µM | – | > 100 µM | – | > 100 µM | – | > 100 µM | – | > 100 µM | – | > 100 µM
Cc1ccc2c(C(C[N+](=O)[O-])c3ccco3)c(-c3ccccc3)[nH]c2c1 (stereo not given) | > 100 | > 100 µM | 48.3 | > 100 µM | > 100 | > 100 µM | 41.3 | > 100 µM | 3.92 | > 100 µM | 38.2 | > 100 µM | > 100 | > 100 µM | > 100 | > 100 µM | 12.3 | > 100 µM | > 100 | > 100 µM
BrC(Br)([P+](c1ccccc1)(c1ccccc1)c1ccccc1)[P+](c1ccccc1)(c1ccccc1)c1ccccc1 | – | 31.9 µM | – | > 100 µM | – | 31.8 µM | – | 26.9 µM | – | 28.7 µM | – | 38.9 µM | – | 31.2 µM | – | 81.3 µM | – | > 100 µM | – | > 100 µM
Nc1ccc2c(SCC(=O)Nc3ccccc3-c3ccccc3NC(=O)CSc3c4ccccc4nc4cc(N)ccc34)c3ccccc3nc2c1 | – | > 100 µM | – | > 100 µM | – | 61.7 µM | – | 56 µM | – | 31.8 µM | – | 68 µM | – | 79.9 µM | – | > 100 µM | – | 75.3 µM | – | 93.3 µM
